In the kinase profiling compilation of Christmann-Franck et al. (2016):

Legend:
HIPK1 (human) = HIPK1 (human) (UniProt Q86Z02); assay: KINOMEscan competition binding; details: compound 10.0 µM
CLK2 (human) = CLK2 (human) (UniProt P49760); assay: KINOMEscan competition binding; details: compound 10.0 µM
PIK3CB (human) = PIK3CB (human) (UniProt P42338); assay: KINOMEscan competition binding; details: compound 10.0 µM
DAPK2 (human) = DAPK2 (human) (UniProt Q9UIK4); assay: KINOMEscan competition binding; details: compound 10.0 µM
RPS6KA2 KD2 (human) = RPS6KA2 KD2 (human) (UniProt Q15349); assay: KINOMEscan competition binding; details: compound 10.0 µM
PIM2 (human) [1] = target: PIM2 (human) (UniProt Q9P1W9); assay: KINOMEscan competition binding; details: compound 10.0 µM
Sequence of PIM2 (human) (Q9P1W9 whole entry, looked up): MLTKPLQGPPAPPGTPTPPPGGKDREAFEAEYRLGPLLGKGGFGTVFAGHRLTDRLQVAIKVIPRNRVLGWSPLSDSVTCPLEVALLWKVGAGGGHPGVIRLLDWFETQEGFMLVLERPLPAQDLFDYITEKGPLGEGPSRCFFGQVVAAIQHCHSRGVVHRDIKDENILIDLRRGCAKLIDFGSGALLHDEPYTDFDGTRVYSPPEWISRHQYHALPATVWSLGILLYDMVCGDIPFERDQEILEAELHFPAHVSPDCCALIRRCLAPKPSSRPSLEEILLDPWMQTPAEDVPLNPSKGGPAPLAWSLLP

AAK1 (human) = AAK1 (human) (UniProt Q2M2I8); assay: KINOMEscan competition binding; details: compound 10.0 µM
TAOK3 (human) = TAOK3 (human) (UniProt Q9H2K8); assay: KINOMEscan competition binding; details: compound 10.0 µM
DAPK3 (human) = DAPK3 (human) (UniProt O43293); assay: KINOMEscan competition binding; details: compound 10.0 µM
Sequence of DAPK3 (human) (O43293 whole entry, looked up): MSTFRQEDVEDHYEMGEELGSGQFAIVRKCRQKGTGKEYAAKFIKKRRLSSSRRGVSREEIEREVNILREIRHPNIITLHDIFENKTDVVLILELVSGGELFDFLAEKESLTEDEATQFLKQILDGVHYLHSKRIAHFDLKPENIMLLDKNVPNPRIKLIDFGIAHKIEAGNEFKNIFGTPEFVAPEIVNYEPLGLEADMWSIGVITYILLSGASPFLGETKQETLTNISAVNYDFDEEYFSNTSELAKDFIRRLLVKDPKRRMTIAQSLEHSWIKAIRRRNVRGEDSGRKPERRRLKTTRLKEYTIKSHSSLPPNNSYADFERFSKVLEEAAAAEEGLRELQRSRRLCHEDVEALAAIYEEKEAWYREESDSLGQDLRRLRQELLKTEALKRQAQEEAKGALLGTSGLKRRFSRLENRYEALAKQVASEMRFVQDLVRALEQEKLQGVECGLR

RPS6KA5 KD2 (human) = RPS6KA5 KD2 (human) (UniProt O75582); assay: KINOMEscan competition binding; details: compound 10.0 µM
STK17A (human) = STK17A (human) (UniProt Q9UEE5); assay: KINOMEscan competition binding; details: compound 10.0 µM
Sequence of STK17A (human) (Q9UEE5 whole entry, looked up): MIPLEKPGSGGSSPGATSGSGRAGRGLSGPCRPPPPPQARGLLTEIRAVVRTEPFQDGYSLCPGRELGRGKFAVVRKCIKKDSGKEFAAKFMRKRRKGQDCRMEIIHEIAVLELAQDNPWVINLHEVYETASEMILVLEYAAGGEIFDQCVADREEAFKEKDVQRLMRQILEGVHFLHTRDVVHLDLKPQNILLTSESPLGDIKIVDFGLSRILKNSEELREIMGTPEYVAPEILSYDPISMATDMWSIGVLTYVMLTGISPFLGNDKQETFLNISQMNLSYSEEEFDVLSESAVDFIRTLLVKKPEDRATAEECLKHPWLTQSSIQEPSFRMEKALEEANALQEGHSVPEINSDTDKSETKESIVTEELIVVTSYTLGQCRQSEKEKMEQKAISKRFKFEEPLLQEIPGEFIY

SRPK3 (human) = SRPK3 (human) (UniProt Q9UPE1); assay: KINOMEscan competition binding; details: compound 10.0 µM
[2] = test system: EIF2AK4 KD2 (human), Q9P2K8 [S808G]; assay: KINOMEscan competition binding; details: compound 10.0 µM
SRPK1 (human) = SRPK1 (human) (UniProt Q96SB4); assay: KINOMEscan competition binding; details: compound 10.0 µM
PIK3CG (human) = PIK3CG (human) (UniProt P48736); assay: KINOMEscan competition binding; details: compound 10.0 µM
PIM1 (human) [3] = target: PIM1 (human) (UniProt P11309); assay: KINOMEscan competition binding; details: compound 10.0 µM
Sequence of PIM1 (human) (P11309 whole entry, looked up): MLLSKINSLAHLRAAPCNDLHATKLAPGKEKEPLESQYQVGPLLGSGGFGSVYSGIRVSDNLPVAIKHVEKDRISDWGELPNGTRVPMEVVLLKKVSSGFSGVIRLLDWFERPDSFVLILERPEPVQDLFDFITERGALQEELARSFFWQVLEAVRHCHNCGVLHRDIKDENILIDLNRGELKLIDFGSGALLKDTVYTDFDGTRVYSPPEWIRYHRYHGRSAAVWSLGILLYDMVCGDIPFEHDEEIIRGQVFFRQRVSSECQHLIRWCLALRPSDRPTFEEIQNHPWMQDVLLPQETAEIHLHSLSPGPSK

RPS6KA4 KD2 (human) = RPS6KA4 KD2 (human) (UniProt O75676); assay: KINOMEscan competition binding; details: compound 10.0 µM
ZAP70 (human) = ZAP70 (human) (UniProt P43403); assay: KINOMEscan competition binding; details: compound 10.0 µM
Sequence of ZAP70 (human) (P43403 whole entry, looked up): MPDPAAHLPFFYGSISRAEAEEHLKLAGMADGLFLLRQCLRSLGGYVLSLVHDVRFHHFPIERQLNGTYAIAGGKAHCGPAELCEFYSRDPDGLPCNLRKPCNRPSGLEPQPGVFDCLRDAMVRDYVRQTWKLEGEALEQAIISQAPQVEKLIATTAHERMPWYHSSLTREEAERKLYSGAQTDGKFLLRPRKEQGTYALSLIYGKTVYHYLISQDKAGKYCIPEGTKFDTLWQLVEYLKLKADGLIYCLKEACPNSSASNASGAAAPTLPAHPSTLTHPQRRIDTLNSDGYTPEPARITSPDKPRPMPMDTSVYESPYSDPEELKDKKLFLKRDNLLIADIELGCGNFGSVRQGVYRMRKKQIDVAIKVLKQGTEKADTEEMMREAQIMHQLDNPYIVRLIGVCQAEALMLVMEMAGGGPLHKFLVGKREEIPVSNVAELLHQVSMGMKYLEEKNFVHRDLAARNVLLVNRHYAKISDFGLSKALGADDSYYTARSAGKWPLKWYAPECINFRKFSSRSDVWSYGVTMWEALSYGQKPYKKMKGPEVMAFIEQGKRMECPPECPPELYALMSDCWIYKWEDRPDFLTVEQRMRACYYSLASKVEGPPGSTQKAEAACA

DAPK1 (human) = DAPK1 (human) (UniProt P53355); assay: KINOMEscan competition binding; details: compound 10.0 µM
Sequence of DAPK1 (human) (P53355 whole entry, looked up): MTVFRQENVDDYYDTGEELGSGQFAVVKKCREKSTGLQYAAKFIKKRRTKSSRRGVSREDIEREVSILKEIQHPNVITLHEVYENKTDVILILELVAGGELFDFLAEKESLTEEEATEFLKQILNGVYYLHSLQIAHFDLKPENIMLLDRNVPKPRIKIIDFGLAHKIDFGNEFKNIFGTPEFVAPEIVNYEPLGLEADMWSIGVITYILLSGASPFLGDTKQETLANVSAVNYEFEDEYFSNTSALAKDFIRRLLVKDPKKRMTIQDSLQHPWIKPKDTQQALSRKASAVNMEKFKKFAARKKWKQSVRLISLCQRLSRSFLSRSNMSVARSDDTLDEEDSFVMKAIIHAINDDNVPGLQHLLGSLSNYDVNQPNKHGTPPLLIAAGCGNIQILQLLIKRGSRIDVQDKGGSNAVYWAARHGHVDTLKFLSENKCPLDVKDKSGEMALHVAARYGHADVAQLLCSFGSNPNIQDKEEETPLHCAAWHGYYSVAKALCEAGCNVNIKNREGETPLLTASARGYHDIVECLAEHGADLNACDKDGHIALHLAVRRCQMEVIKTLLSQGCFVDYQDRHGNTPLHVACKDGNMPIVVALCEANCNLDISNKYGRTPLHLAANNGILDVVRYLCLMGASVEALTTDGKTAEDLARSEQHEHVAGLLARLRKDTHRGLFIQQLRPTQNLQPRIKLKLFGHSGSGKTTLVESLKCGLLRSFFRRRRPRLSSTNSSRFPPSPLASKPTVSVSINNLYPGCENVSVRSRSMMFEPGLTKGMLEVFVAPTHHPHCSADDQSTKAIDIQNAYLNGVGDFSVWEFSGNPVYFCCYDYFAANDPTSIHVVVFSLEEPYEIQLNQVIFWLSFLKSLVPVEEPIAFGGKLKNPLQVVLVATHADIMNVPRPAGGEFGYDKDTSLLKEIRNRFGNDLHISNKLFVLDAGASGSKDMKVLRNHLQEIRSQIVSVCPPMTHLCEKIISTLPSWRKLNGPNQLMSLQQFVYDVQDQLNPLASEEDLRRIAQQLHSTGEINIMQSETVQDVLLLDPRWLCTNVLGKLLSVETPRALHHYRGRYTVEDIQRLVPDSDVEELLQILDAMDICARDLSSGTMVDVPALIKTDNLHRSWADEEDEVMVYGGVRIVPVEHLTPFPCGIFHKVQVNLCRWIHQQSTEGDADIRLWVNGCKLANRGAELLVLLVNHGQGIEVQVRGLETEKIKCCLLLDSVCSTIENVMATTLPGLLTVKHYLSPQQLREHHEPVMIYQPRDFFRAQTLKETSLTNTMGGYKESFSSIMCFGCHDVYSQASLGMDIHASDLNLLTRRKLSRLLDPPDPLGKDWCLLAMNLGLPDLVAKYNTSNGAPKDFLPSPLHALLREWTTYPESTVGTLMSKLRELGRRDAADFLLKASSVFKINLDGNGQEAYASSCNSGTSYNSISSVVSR

CSNK1G2 (human) = CSNK1G2 (human) (UniProt P78368); assay: KINOMEscan competition binding; details: compound 10.0 µM
RIOK3 (human) = RIOK3 (human) (UniProt O14730); assay: KINOMEscan competition binding; details: compound 10.0 µM
CSNK2A2 (human) = CSNK2A2 (human) (UniProt P19784); assay: KINOMEscan competition binding; details: compound 10.0 µM
BMP2K (human) = BMP2K (human) (UniProt Q9NSY1); assay: KINOMEscan competition binding; details: compound 10.0 µM
CSNK2A1 (human) = CSNK2A1 (human) (UniProt P68400); assay: KINOMEscan competition binding; details: compound 10.0 µM
Sequence of CSNK2A1 (human) (P68400 whole entry, looked up): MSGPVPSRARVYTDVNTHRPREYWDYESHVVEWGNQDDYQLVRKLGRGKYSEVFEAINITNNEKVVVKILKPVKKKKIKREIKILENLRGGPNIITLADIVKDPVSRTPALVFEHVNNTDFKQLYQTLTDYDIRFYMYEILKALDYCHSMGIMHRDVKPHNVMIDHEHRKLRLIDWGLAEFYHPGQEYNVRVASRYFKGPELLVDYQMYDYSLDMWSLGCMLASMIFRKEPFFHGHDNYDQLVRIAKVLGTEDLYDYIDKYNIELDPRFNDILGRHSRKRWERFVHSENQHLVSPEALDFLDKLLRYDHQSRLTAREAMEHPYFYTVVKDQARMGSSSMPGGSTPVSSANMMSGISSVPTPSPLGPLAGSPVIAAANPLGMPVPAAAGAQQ

CLK1 (human) = CLK1 (human) (UniProt P49759); assay: KINOMEscan competition binding; details: compound 10.0 µM
Sequence of CLK1 (human) (P49759 whole entry, looked up): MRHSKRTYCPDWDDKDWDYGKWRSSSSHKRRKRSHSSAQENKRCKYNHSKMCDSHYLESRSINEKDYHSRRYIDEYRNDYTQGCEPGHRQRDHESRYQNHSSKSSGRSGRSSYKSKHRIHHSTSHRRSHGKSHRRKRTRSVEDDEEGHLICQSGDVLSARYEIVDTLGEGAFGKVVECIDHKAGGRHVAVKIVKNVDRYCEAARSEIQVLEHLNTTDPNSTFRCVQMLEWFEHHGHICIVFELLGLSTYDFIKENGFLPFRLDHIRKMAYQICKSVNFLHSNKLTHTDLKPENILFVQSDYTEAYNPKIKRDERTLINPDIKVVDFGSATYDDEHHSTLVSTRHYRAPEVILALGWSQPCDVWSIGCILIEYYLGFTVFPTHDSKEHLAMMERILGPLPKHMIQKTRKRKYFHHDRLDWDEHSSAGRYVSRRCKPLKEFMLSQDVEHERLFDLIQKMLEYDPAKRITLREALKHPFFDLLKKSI

PDGFRB (human) = PDGFRB (human) (UniProt P09619); assay: KINOMEscan competition binding; details: compound 10.0 µM
PLK1 (human) = PLK1 (human) (UniProt P53350); assay: KINOMEscan competition binding; details: compound 10.0 µM
PIM3 (human) = PIM3 (human) (UniProt Q86V86); assay: KINOMEscan competition binding; details: compound 10.0 µM
STK17B (human) = STK17B (human) (UniProt O94768); assay: KINOMEscan competition binding; details: compound 10.0 µM
Sequence of STK17B (human) (O94768 whole entry, looked up): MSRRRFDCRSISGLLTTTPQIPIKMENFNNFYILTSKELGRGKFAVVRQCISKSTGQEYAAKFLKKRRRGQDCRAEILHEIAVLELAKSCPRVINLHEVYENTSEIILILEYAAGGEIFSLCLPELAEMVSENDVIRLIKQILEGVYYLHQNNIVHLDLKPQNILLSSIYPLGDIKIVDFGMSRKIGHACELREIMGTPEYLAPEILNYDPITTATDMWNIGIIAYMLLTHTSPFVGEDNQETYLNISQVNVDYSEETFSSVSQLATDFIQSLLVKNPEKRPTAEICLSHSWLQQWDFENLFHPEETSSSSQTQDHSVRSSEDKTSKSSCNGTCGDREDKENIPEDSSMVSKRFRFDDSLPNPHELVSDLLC

RIOK1 (human) = RIOK1 (human) (UniProt Q9BRS2); assay: KINOMEscan competition binding; details: compound 10.0 µM
PIM2 (human) [4] = target: PIM2 (human) (UniProt Q9P1W9); assay: SelectScreen, TR FRET
PIM1 (human) [5] = target: PIM1 (human) (UniProt P11309); assay: SelectScreen, TR FRET
ACVR2A (human) = ACVR2A (human) (UniProt P27037); assay: KINOMEscan competition binding; details: compound 10.0 µM
CDK7 (human) = CDK7 (human) (UniProt P50613); assay: KINOMEscan competition binding; details: compound 10.0 µM
PIK3CD (human) = PIK3CD (human) (UniProt O00329); assay: KINOMEscan competition binding; details: compound 10.0 µM
PAK2 (human) = PAK2 (human) (UniProt Q13177); assay: KINOMEscan competition binding; details: compound 10.0 µM
MAP3K7 (human) = MAP3K7 (human) (UniProt O43318); assay: KINOMEscan competition binding; details: compound 10.0 µM
RPS6KA6 KD2 (human) = RPS6KA6 KD2 (human) (UniProt Q9UK32); assay: KINOMEscan competition binding; details: compound 10.0 µM
GAK (human) = GAK (human) (UniProt O14976); assay: KINOMEscan competition binding; details: compound 10.0 µM
NUAK2 (human) = NUAK2 (human) (UniProt Q9H093); assay: KINOMEscan competition binding; details: compound 10.0 µM
MKNK2 (human) = MKNK2 (human) (UniProt Q9HBH9); assay: KINOMEscan competition binding; details: compound 10.0 µM
MAPK8 (human) = MAPK8 (human) (UniProt P45983); assay: KINOMEscan competition binding; details: compound 10.0 µM
TLK1 (human) = TLK1 (human) (UniProt Q9UKI8); assay: KINOMEscan competition binding; details: compound 10.0 µM
MAP2K3 (human) = MAP2K3 (human) (UniProt P46734); assay: KINOMEscan competition binding; details: compound 10.0 µM
STK24 (human) = STK24 (human) (UniProt Q9Y6E0); assay: KINOMEscan competition binding; details: compound 10.0 µM
[6] = target: JAK1 JH2 pseudokinase (human) (UniProt P23458); assay: KINOMEscan competition binding; details: compound 10.0 µM
TAOK1 (human) = TAOK1 (human) (UniProt Q7L7X3); assay: KINOMEscan competition binding; details: compound 10.0 µM
BTK (human) = BTK (human) (UniProt Q06187); assay: KINOMEscan competition binding; details: compound 10.0 µM
[7] = target: TYK2 JH2 pseudokinase (human) (UniProt P29597); assay: KINOMEscan competition binding; details: compound 10.0 µM
TTK (human) = TTK (human) (UniProt P33981); assay: KINOMEscan competition binding; details: compound 10.0 µM
CLK4 (human) = CLK4 (human) (UniProt Q9HAZ1); assay: KINOMEscan competition binding; details: compound 10.0 µM
CSNK1D (human) = CSNK1D (human) (UniProt P48730); assay: KINOMEscan competition binding; details: compound 10.0 µM
DYRK1B (human) = DYRK1B (human) (UniProt Q9Y463); assay: KINOMEscan competition binding; details: compound 10.0 µM
RPS6KA1 KD2 (human) = RPS6KA1 KD2 (human) (UniProt Q15418); assay: KINOMEscan competition binding; details: compound 10.0 µM
GSK3A (human) = GSK3A (human) (UniProt P49840); assay: KINOMEscan competition binding; details: compound 10.0 µM
PLK4 (human) = PLK4 (human) (UniProt O00444); assay: KINOMEscan competition binding; details: compound 10.0 µM
RIOK2 (human) = RIOK2 (human) (UniProt Q9BVS4); assay: KINOMEscan competition binding; details: compound 10.0 µM
MAP2K4 (human) = MAP2K4 (human) (UniProt P45985); assay: KINOMEscan competition binding; details: compound 10.0 µM
MAPK10 (human) = MAPK10 (human) (UniProt P53779); assay: KINOMEscan competition binding; details: compound 10.0 µM
TGFBR2 (human) = TGFBR2 (human) (UniProt P37173); assay: KINOMEscan competition binding; details: compound 10.0 µM
ACVR2B (human) = ACVR2B (human) (UniProt Q13705); assay: KINOMEscan competition binding; details: compound 10.0 µM
MYLK4 (human) = MYLK4 (human) (UniProt Q86YV6); assay: KINOMEscan competition binding; details: compound 10.0 µM

## O=C1NC(=O)/C(=C/c2c[nH]c(=O)c(-c3ccc(C(=O)Nc4ccc(N5CCNCC5)cc4)cc3)c2)S1
HIPK1 (human)
  kinase still bound, per cent of control: 9%
CLK2 (human)
  kinase still bound, per cent of control: 0.45%
PIK3CB (human)
  kinase still bound, per cent of control: 2.4%
DAPK2 (human)
  kinase still bound, per cent of control: 6.4%
RPS6KA2 KD2 (human)
  kinase still bound, per cent of control: 29%
PIM2 (human) [1]
  kinase still bound, per cent of control: 1.2%
AAK1 (human)
  kinase still bound, per cent of control: 4.4%
TAOK3 (human)
  kinase still bound, per cent of control: 26%
DAPK3 (human)
  kinase still bound, per cent of control: 4.8%
RPS6KA5 KD2 (human)
  kinase still bound, per cent of control: 19%
STK17A (human)
  kinase still bound, per cent of control: 6.3%
SRPK3 (human)
  kinase still bound, per cent of control: 28%
[2]
  kinase still bound, per cent of control: 27%
SRPK1 (human)
  kinase still bound, per cent of control: 31%
PIK3CG (human)
  kinase still bound, per cent of control: 22%
PIM1 (human) [3]
  kinase still bound, per cent of control: 9.5%
RPS6KA4 KD2 (human)
  kinase still bound, per cent of control: 0.95%
ZAP70 (human)
  kinase still bound, per cent of control: 11%
DAPK1 (human)
  kinase still bound, per cent of control: 3.6%
CSNK1G2 (human)
  kinase still bound, per cent of control: 24%
RIOK3 (human)
  kinase still bound, per cent of control: 13%
CSNK2A2 (human)
  kinase still bound, per cent of control: 32%
BMP2K (human)
  kinase still bound, per cent of control: 22%
CSNK2A1 (human)
  kinase still bound, per cent of control: 24%
CLK1 (human)
  kinase still bound, per cent of control: 16%
PDGFRB (human)
  kinase still bound, per cent of control: 0%
PLK1 (human)
  kinase still bound, per cent of control: 17%
PIM3 (human)
  kinase still bound, per cent of control: 10%
STK17B (human)
  kinase still bound, per cent of control: 0.6%
RIOK1 (human)
  kinase still bound, per cent of control: 14%

## N=C1NC(=O)/C(=C/c2ccc(-c3cccc4cc[nH]c34)o2)S1
PIM2 (human) [4]
  IC50: 1770 nM
PIM1 (human) [5]
  IC50: 961 nM
ACVR2A (human)
  kinase still bound, per cent of control: 25%
HIPK1 (human)
  kinase still bound, per cent of control: 0.45%
CLK2 (human)
  kinase still bound, per cent of control: 7.7%
CDK7 (human)
  kinase still bound, per cent of control: 20%
PIK3CB (human)
  kinase still bound, per cent of control: 4.5%
PIK3CD (human)
  kinase still bound, per cent of control: 23%
DAPK2 (human)
  kinase still bound, per cent of control: 12%
PAK2 (human)
  kinase still bound, per cent of control: 32%
RPS6KA2 KD2 (human)
  kinase still bound, per cent of control: 24%
PIM2 (human) [1]
  kinase still bound, per cent of control: 0.45%
MAP3K7 (human)
  kinase still bound, per cent of control: 34%
RPS6KA6 KD2 (human)
  kinase still bound, per cent of control: 30%
GAK (human)
  kinase still bound, per cent of control: 5%
NUAK2 (human)
  kinase still bound, per cent of control: 21%
MKNK2 (human)
  kinase still bound, per cent of control: 11%
MAPK8 (human)
  kinase still bound, per cent of control: 14%
TLK1 (human)
  kinase still bound, per cent of control: 22%
MAP2K3 (human)
  kinase still bound, per cent of control: 17%
DAPK3 (human)
  kinase still bound, per cent of control: 16%
STK24 (human)
  kinase still bound, per cent of control: 27%
[6]
  kinase still bound, per cent of control: 30%
TAOK1 (human)
  kinase still bound, per cent of control: 6%
BTK (human)
  kinase still bound, per cent of control: 18%
STK17A (human)
  kinase still bound, per cent of control: 0.05%
[7]
  kinase still bound, per cent of control: 2.2%
TTK (human)
  kinase still bound, per cent of control: 21%
PIM1 (human) [3]
  kinase still bound, per cent of control: 4.9%
ZAP70 (human)
  kinase still bound, per cent of control: 8.2%
DAPK1 (human)
  kinase still bound, per cent of control: 4.4%
CLK4 (human)
  kinase still bound, per cent of control: 20%
CSNK1D (human)
  kinase still bound, per cent of control: 30%
DYRK1B (human)
  kinase still bound, per cent of control: 7.4%
RPS6KA1 KD2 (human)
  kinase still bound, per cent of control: 17%
GSK3A (human)
  kinase still bound, per cent of control: 20%
CSNK2A2 (human)
  kinase still bound, per cent of control: 24%
CSNK2A1 (human)
  kinase still bound, per cent of control: 26%
PLK4 (human)
  kinase still bound, per cent of control: 18%
RIOK2 (human)
  kinase still bound, per cent of control: 5.5%
CLK1 (human)
  kinase still bound, per cent of control: 17%
MAP2K4 (human)
  kinase still bound, per cent of control: 3.9%
MAPK10 (human)
  kinase still bound, per cent of control: 31%
TGFBR2 (human)
  kinase still bound, per cent of control: 5.8%
PIM3 (human)
  kinase still bound, per cent of control: 4%
STK17B (human)
  kinase still bound, per cent of control: 0.4%
ACVR2B (human)
  kinase still bound, per cent of control: 20%
MYLK4 (human)
  kinase still bound, per cent of control: 32%
